# Measured values reported in patent US20140017230A1, “CHRONIC LYMPHOCYTIC LEUKEMIA (CLL) BIOMARKERS” (HOFFMANN-LAROCHE INC., priority 2011, published 2014).
# Key:
# CLL patients = assay: Phase III trial in CLL patients, R-FC vs FC: progression free survival (PFS) by pretreatment biomarker expression in CD19+ PBMC; type: in vivo, human; details: for Median PFS PTK2 Exon 1.0 ST / Median PFS PTK2 U133 plus2.0 / Median PFS PTK2 qRT-PCR / Median PFS miRNA151 DISCOVARRAY / Median PFS miRNA151 qRT-PCR / Median PFS miRNA409 DISCOVARRAY / Median PFS miRNA409 qRT-PCR: CLL patients; for Median PFS PTK2 Exon 1.0 ST / Median PFS PTK2 U133 plus2.0 / Median PFS PTK2 qRT-PCR: PTK2 expression in CD19+ cells
# Description: Pretreatment patient samples were analyzed from an international, multicenter, open-label, phase III trial, randomizing CLL patients to receive R-FC (rituximab plus fludarabine/cyclophosphamide) or FC (fludarabine/cyclophosphamide) alone. […] The study protocol was approved by institutional review boards at participating centers and all patients gave written informed consent. Details on trial design and eligibility criteria have been described in Robak et al. J. Clin. Oncol. 28(10):1756-1765 (2010). Patients were selected on the availability of RNA and the written informed consent to participate in molecular genetic analyses of peripheral blood samples.
# Pretreatment Peripheral Blood Mononuclear Cell (PBMC) samples positively selected for CD19+ cells were available from n=301 patients. CD19 separation was performed by magnetic bead separation according to the manufacturer's protocol (Miltenyi, Germany).
# Pretreatment clinical features i.e demographics, prognostic markers (cytogenetic aberrations like del(17p), del(11q), ZAP70 and CD38 expression, IgVH status), progression free survival (PFS) were compared using the Fisher's exact, Mann-Whitney, or log-rank tests. A p-value of <0.05 was considered statistically significant.
# Two approaches using a Cox regression model were used to identify genes and miRNA associated with survival. First approach considered the models below.
# For the different tables and graphs appearing in this document where median PFS was computed, mRNA and miRNA signal intensities were dichotomized using the median value as a cutoff.
# [1] = tested on: 3′UTR luciferase reporter constructs in HeLa cells; assay: 3′UTR luciferase reporter assay with miRNA151 3p mimic vs scrambled mimic; type: cell-based; details: 10 nM mimic, 24 hours post-transfection, normalized to scrambled control
# Description: Predicted targets were downloaded from TARGETSCAN 5.1™ (http://www.targetscan.org/) and expression was extracted from the mRNA expression profiling data, irrespective of predicted site conservation. Anti-correlations with miRNAs were determined by comparing miRNA array and mRNA array data and computing Pearson correlation coefficients. […] Subsequently, 3′UTRs that met this threshold were cloned upstream into 3′UTR luciferase reporter constructs (Switchgear Genomics) and 100 ng of each construct was transfected into HeLa cells (ATCC) with 25 ng pRL-CMV, 10 nM miRNA151 3p mimic (Dharmacon) or scrambled mimic in 96-well plates. Luciferase activity was determined 24 hours post-transfection and all data were normalized to renilla luciferase transfection control and scrambled control mimic. Three biological replicates were performed. Statistical significance for a difference between scrambled control and miRNA151 3p mimic was determined by a 2-sided Student's t-test.
# [2] = miRNA signal < median miRNA signal
# [3] = miRNA signal > median miRNA signal
substance,measurement,setting,value
fludarabine/cyclophosphamide [FC],"HR for PFS, miRNA151 < median vs > median within treatment arm",CLL patients; Array,0.99
same,"HR for PFS, miRNA409 < median vs > median within treatment arm",CLL patients; Array,1.12
same,Median PFS PTK2 Exon 1.0 ST,CLL patients; gene < median,17.9 months
same,Median PFS PTK2 U133 plus2.0,CLL patients; gene < median,17.9 months
same,Median PFS PTK2 qRT-PCR,CLL patients; gene < median,17.9 months
same,Median PFS PTK2 Exon 1.0 ST,CLL patients; gene > median,21.5 months
same,Median PFS PTK2 U133 plus2.0,CLL patients; gene > median,21.5 months
same,Median PFS PTK2 qRT-PCR,CLL patients; gene > median,21.5 months
same,Median PFS miRNA151 DISCOVARRAY,CLL patients; [2],18 months
same,Median PFS miRNA151 qRT-PCR,CLL patients; [2],17.9 months
same,Median PFS miRNA409 DISCOVARRAY,CLL patients; [2],21.6 months
same,Median PFS miRNA409 qRT-PCR,CLL patients; [2],18.3 months
same,Median PFS miRNA151 DISCOVARRAY,CLL patients; [3],18.5 months
same,Median PFS miRNA151 qRT-PCR,CLL patients; [3],20.7 months
same,Median PFS miRNA409 DISCOVARRAY,CLL patients; [3],18 months
same,Median PFS miRNA409 qRT-PCR,CLL patients; [3],18.3 months
same,"HR for PFS, PTK2 < median vs > median within treatment arm","CLL patients; Exon 1.0 ST, CD19+ cells",0.86
same,"HR for PFS, miRNA151 < median vs > median within treatment arm",CLL patients; RT-PCR,0.84
same,"HR for PFS, miRNA409 < median vs > median within treatment arm",CLL patients; RT-PCR,1.03
same,"HR for PFS, PTK2 < median vs > median within treatment arm","CLL patients; U133 + 2, CD19+ cells",0.86
same,"HR for PFS, PTK2 < median vs > median within treatment arm","CLL patients; qRT-PCR, CD19+ cells",0.77
"miRNA151 3p: miRNA151 3p mimic (Dharmacon); miRNA comprising the sequence CUAGACUGAAGCUCCUUGAGG (SEQ ID NO: 1) (synthetic mimic duplex, passenger strand not listed, further chemistry not given here; listed as Homo sapiens)",3′UTRs showing a statistically significant reduction in luciferase activity (5 out of the 18),[1],28%
